Source: ChEMBL document CHEMBL1135548 (J Med Chem, 2002)

Key:
Experiment in all cases: biochemical
Adenosine receptor A2a [1] = target: T1, Adenosine receptor A2a (Homo sapiens, UniProt P29274)
Adenosine receptor A2a [2] = target: T1, Adenosine receptor A2a; remark: listed apart in the source
Description: Inhibition of [3H]CGS-21680 binding to human Adenosine A2a receptor expressed in HEK293 cells; Range 438-749

Adenosine receptor A2b [3] = target: T2, Adenosine receptor A2b (Homo sapiens, UniProt P29275)
T2 sequence (P29275 whole entry): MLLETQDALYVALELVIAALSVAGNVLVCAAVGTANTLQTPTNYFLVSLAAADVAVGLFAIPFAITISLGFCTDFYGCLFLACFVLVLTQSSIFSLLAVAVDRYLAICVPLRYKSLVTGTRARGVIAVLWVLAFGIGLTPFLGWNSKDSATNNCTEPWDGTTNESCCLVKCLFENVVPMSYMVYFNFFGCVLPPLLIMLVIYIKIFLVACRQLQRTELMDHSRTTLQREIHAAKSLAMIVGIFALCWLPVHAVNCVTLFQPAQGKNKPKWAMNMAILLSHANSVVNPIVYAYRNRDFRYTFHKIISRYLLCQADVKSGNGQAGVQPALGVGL
Description: Inhibition of [3H]DPCPX binding to human Adenosine A2B receptor expressed in HEK cells; range 640-1100

Adenosine receptor A1 [4] = target: T3, Adenosine receptor A1 (Homo sapiens, UniProt P30542)
T3 sequence (P30542 whole entry): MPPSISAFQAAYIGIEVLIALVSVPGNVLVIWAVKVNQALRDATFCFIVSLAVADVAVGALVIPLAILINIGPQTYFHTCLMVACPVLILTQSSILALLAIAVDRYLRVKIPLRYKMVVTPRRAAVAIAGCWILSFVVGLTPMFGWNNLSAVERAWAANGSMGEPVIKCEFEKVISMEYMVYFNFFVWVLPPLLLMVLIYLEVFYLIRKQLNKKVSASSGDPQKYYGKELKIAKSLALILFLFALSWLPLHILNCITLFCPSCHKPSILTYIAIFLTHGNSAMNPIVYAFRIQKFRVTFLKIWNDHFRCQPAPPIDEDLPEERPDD

Adenosine receptor A2b [5] = target: T2, Adenosine receptor A2b; remark: listed apart in the source
Description: Inhibition of [3H]DPCPX binding to human Adenosine A2B receptor expressed in HEK cells; Range 3580-12400

Adenosine receptor A1 [6] = target: T3, Adenosine receptor A1; remark: listed apart in the source
Adenosine receptor A1 [7] = target: T3, Adenosine receptor A1; remark: listed apart in the source
Description: Inhibition of [3H]DPCPX binding to human Adenosine A1 receptor expressed in CHO cells; Range 256-620

Adenosine receptor A2a [8] = target: T1, Adenosine receptor A2a; remark: listed apart in the source
Adenosine receptor A2b [9] = target: T2, Adenosine receptor A2b; remark: listed apart in the source
Adenosine receptor A1 [10] = target: T3, Adenosine receptor A1; type: cell-based, CHO
Description: Inhibition of [3H]DPCPX binding to human Adenosine A1 receptor expressed in CHO cells

Adenosine receptor A2a [11] = target: T1, Adenosine receptor A2a; remark: listed apart in the source
Description: Inhibition of [3H]CGS-21680 binding to human Adenosine A2A receptor expressed in HEK293 cells

T1 sequence (P29274 whole entry): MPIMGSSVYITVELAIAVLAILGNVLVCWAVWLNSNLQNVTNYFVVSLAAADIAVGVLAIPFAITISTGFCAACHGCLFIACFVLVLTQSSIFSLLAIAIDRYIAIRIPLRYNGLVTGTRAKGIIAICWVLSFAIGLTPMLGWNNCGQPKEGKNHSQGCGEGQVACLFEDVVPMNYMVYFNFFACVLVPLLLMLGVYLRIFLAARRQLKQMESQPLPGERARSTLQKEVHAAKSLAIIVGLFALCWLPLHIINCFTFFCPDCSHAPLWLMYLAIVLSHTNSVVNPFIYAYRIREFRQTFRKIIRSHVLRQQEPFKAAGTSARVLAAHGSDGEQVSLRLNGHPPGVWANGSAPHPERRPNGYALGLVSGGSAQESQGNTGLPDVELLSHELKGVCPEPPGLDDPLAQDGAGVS

`CCCCCc1nc2nc[nH]c2c2nc(-c3ccccc3)nn12` showed an IC50 (Adenosine receptor A2a [1]) of 200 nM.
In the case of `CCCCc1nc2nc[nH]c2c2nc(-c3cccc(Cl)c3)nn12`, the IC50 (Adenosine receptor A2a [1]) is reported as 56 nM.
Compound `CCCCc1nc2[nH]cnc2c2nc(-c3cccc(C)c3)nn12` has an IC50 (Adenosine receptor A2a [1]) of 188 nM.
Compound `CCCCc1nc2nc[nH]c2c2nc(-c3ccc(OCC)cc3)nn12` has an IC50 (Adenosine receptor A2a [1]) of 3800 nM, a Ki (Adenosine receptor A2a [2]) of 572 nM and a Ki (Adenosine receptor A2b [3]) of 838 nM. For the same compound, the Ki (Adenosine receptor A1 [4]) was 413 nM.
In the case of `CCCCc1nc2[nH]cnc2c2nc(Cc3ccccc3)nn12`, the IC50 (Adenosine receptor A2a [1]) is reported as 47 nM.
`CCCCc1nc2nc[nH]c2c2nc(-c3ccc(Br)cc3)nn12` showed an IC50 (Adenosine receptor A2a [1]) of 3300 nM.
`CCCCc1nc2[nH]cnc2c2nc(-c3cccc(OC)c3)nn12` showed an IC50 (Adenosine receptor A2a [1]) of 67 nM.
Compound `CCCCc1nc2[nH]cnc2c2nc(-c3cccnc3)nn12` has an IC50 (Adenosine receptor A2a [1]) of 900 nM.
`CCCCCCc1nc2nc[nH]c2c2nc(-c3ccccc3)nn12` gave an IC50 (Adenosine receptor A2a [1]) of 7800 nM.
Compound `CCCCc1nc2[nH]cnc2c2nc(C)nn12` has an IC50 (Adenosine receptor A2a [1]) of 46 nM.
Work on `CCCCc1nc2nc[nH]c2c2nc(-c3ccc(O)cc3)nn12` yielded an IC50 (Adenosine receptor A2a [1]) of 58 nM.
`CCCCc1nc2[nH]cnc2c2nc(-c3ccc(N(C)C)cc3)nn12` gave a Ki (Adenosine receptor A2b [5]) of 6660 nM and a Ki (Adenosine receptor A1 [6]) of 1310 nM.
`CCCc1nc2nc[nH]c2c2nc(-c3ccccc3)nn12` showed an IC50 (Adenosine receptor A2a [1]) of 120 nM.
`CCCCc1nc2[nH]cnc2c2nc(-c3ccco3)nn12` was tested, and the IC50 (Adenosine receptor A2a [1]) was 210 nM.
`CCc1nc2[nH]cnc2c2nc(-c3ccccc3)nn12` was tested, and the IC50 (Adenosine receptor A2a [1]) was 360 nM.
`CCCCc1nc2[nH]cnc2c2nc(-c3ccc(OC)cc3)nn12` showed a Ki (Adenosine receptor A1 [7]) of 398 nM, an IC50 (Adenosine receptor A2a [1]) of 1600 nM and a Ki (Adenosine receptor A2a [8]) of 892 nM. It also gave a Ki (Adenosine receptor A2b [9]) of 1030 nM.
In the case of `CCCCc1nc2[nH]cnc2c2nc(-c3ccc(C)cc3)nn12`, the IC50 (Adenosine receptor A2a [1]) is reported as 180 nM.
`CCCCc1nc2nc[nH]c2c2nc(-c3ccc(F)cc3)nn12` showed an IC50 (Adenosine receptor A2a [1]) of 510 nM.
Work on `CCCCc1nc2[nH]cnc2c2nc(-c3cc(OC)c(OC)c(OC)c3)nn12` yielded an IC50 (Adenosine receptor A2a [1]) of 2500 nM.
In the case of `Cc1nc2[nH]cnc2c2nc(-c3ccccc3)nn12`, the IC50 (Adenosine receptor A2a [1]) is reported as 550 nM.
`COc1ccc(-c2csc3nc(=O)cc(N)n23)cc1` was tested, and the Ki (Adenosine receptor A1 [10]) was > 10000 nM and the Ki (Adenosine receptor A2a [11]) was > 10000 nM.
